Consider 2 compounds from patent US9937204B2 (priority 2008, dated 2018).

For one experiment, the system named is Candida species. In words: Time-kill assay, all species together. It is filed as cell-based. Conditions: chlorhexidine gluconate concentrations tested (0.015-0.12%); within one minute of exposure. The protocol: Following exposure, 100 μl aliquots were diluted 50% with 0.85% saline and plated onto potato dextrose agar plates. The aliquots were allowed to dry and then were streaked to remove the yeast from the compound. The plates were incubated at 35° C. for 24 hours. Colony counts were taken and were compared to initial inoculum. The same test was done treating the four Candida species with chlorhexidine gluconate at concentrations ranging from 0.015-0.12%. Chlorhexidine gluconate at concentration 0.12% is commonly prescribed to patients with oral disease.

A further experiment deals with non-albicans isolates. The note with it: out of 100 non-albicans isolates from HIV patients with thrush; cited from earlier work.

Structures are written as SMILES.

In the case of `N=C(NCCCCCCNC(=N)NC(=N)Nc1ccc(Cl)cc1)NC(=N)Nc1ccc(Cl)cc1.O=C(O)[C@H](O)[C@@H](O)[C@H](O)[C@H](O)CO.O=C(O)[C@H](O)[C@@H](O)[C@H](O)[C@H](O)CO` [chlorhexidine gluconate, Chlorhexidine gluconate], the “Time-kill result in words (colony count)” value in the experiment on Candida species is listed as “did not reduce the colony count”.

Turning to `OC(Cn1cncn1)(Cn1cncn1)c1ccc(F)cc1F` [fluconazole], the “Number of isolates resistant” value in the experiment on non-albicans isolates is 88.
